Test results published in patent US20170197979A1, “BENZOTHIADIAZOLAMINES” (BAYER PHARMA AKTIENGESELLSCHAFT, priority 2014, published 2017).

These compounds were tested against T1, human full-length MKNK1 (Homo sapiens, UniProt Q9BUB5, T385D) (assay: MKNK1 kinase high ATP assay (TR-FRET)). Settings: TR-FRET, high ATP (2 mM final), 15 min preincubation with enzyme, GST-MKNK1 (T344D); read-out: MKNK1 IC50.
T1 construct: GST (N); purchased Carna Biosciences 02-145; host or cells: insect cells (baculovirus expression system)
T1 sequence (Q9BUB5 1-424 isoform Q9BUB5-2 T344D): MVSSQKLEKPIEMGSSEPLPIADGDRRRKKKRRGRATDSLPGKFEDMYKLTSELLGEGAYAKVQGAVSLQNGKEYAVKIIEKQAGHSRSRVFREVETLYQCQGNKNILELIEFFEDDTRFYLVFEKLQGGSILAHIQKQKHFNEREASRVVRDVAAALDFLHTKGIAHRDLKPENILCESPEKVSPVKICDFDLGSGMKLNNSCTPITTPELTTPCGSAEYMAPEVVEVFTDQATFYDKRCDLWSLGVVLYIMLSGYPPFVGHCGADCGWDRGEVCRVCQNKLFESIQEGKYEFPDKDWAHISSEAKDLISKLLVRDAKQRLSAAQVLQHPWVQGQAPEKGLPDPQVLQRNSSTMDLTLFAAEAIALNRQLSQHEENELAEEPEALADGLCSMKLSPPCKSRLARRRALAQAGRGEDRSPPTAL
Format: biochemical
Procedure: MKNK1 Kinase High ATP Assay
MKNK1-inhibitory activity at high ATP of compounds of the present invention after their preincubation with MKNK1 was quantified employing the TR-FRET-based MKNK1 high ATP assay as described in the following paragraphs.
A recombinant fusion protein of Glutathione-S-Transferase (GST, N-terminally) and human full-length MKNK1 (amino acids 1-424 and T344D of accession number BAA 19885.1), expressed in insect cells using baculovirus expression system and purified via glutathione sepharose affinity chromatography, was purchased from Carna Biosciences (product no 02-145) and used as enzyme. As substrate for the kinase reaction the biotinylated peptide biotin-Ahx-IKKRKLTRRKSLKG (C-terminus in amide form) was used, which can be purchased e.g. from the company Biosyntan (Berlin-Buch, Germany).
For the assay 50 nL of a 100 fold concentrated solution of the test compound in DMSO was pipetted into a black low volume 384 well microtiter plate (Greiner Bio-One, Frickenhausen, Germany), 2 μL of a solution of MKNK1 in aqueous assay buffer [50 mM HEPES pH 7.5, 5 mM MgCl2, 1.0 mM dithiothreitol, 0.005% (v/v) Nonidet-P40 (Sigma)] was added and the mixture was incubated for 15 min at 22° C. to allow pre-binding of the test compounds to the enzyme before the start of the kinase reaction. Then the kinase reaction was started by the addition of 3 μL of a solution of adenosine-tri-phosphate (ATP, 3.3 mM=>final conc. in the 5 μL assay volume is 2 mM) and substrate (0.1 μM=>final conc. in the 5 μL assay volume is 0.06 μM) in assay buffer and the resulting mixture was incubated for a reaction time of 30 min at 22° C. The concentration of MKNK1 was adjusted depending of the activity of the enzyme lot and was chosen appropriate to have the assay in the linear range, typical concentrations were in the range of 0.003 μg/mL. The reaction was stopped by the addition of 5 μL of a solution of TR-FRET detection reagents (5 nM streptavidine-XL665 [Cisbio Bioassays, Codolet, France] and 1 nM anti-ribosomal protein S6 (pSer236)-antibody from Invitrogen [#44921G] and 1 nM LANCE EU-W1024 labeled ProteinG [Perkin-Elmer, product no. AD0071]) in an aqueous EDTA-solution (100 mM EDTA, 0.1% (w/v) bovine serum albumin in 50 mM HEPES pH 7.5).
The resulting mixture was incubated for 1 h at 22° C. to allow the formation of complex between the phosphorylated biotinylated peptide and the detection reagents. Subsequently the amount of phosphorylated substrate was evaluated by measurement of the resonance energy transfer from the Eu-chelate to the streptavidine-XL. Therefore, the fluorescence emissions at 620 nm and 665 nm after excitation at 350 nm were measured in a TR-FRET reader, e.g. a Rubystar (BMG Labtechnologies, Offenburg, Germany) or a Viewlux (Perkin-Elmer). The ratio of the emissions at 665 nm and at […] was taken as the measure for the amount of phosphorylated substrate. The data were normalised (enzyme reaction without inhibitor=0% inhibition, all other assay components but no enzyme=100% inhibition).

In order of falling IC50:
1. COc1cc2nnsc2cc1Nc1ncnc2sc3c(c12)CC[C@H](C(=O)N1CCC1)C3 [Example 46, Azetidin-1-yl{(7S)-4-[(5-methoxy-1,2,3-benzothiadiazol-6-yl)amino]-5,6,7,8-tetrahydro[1]benzothieno[2,3-d]pyrimidin-7-yl}methanone]  182 nM
2. COc1cc2nnsc2cc1Nc1ncnc2sc3c(c12)CC[C@H](C(=O)N1CCN(C)CC1)C3 [Example 50, {(7S)-4-[(5-Methoxy-1,2,3-benzothiadiazol-6-yl)amino]-5,6,7,8-tetrahydro[1]benzothieno[2,3-d]pyrimidin-7-yl}(4-methylpiperazin-1-yl)methanone]  11 nM
3. COc1cc2nnsc2cc1Nc1ncnc2sc3c(c12)CC[C@H](C(=O)N1CC(N2CCCCC2)C1)C3 [Example 54, {(7S)-4-[(5-Methoxy-1,2,3-benzothiadiazol-6-yl)amino]-5,6,7,8-tetrahydro[1]benzothieno[2,3-d]pyrimidin-7-yl}[3-(piperidin-1-yl)azetidin-1-yl]methanone]  9.2 nM
4. CCN(CCN(C)C)C(=O)[C@H]1CCc2c(sc3ncnc(Nc4cc5snnc5cc4OC)c23)C1 [Example 55, (7S)—N-[2-(Dimethylamino)ethyl]-N-ethyl-4-[(5-methoxy-1,2,3-benzothiadiazol-6-yl)amino]-5,6,7,8-tetrahydro[1]benzothieno[2,3-d]pyrimidine-7-carboxamide]  8.9 nM
5. COc1cc2nnsc2cc1Nc1ncnc2sc3c(c12)CC[C@H](C(=O)N1CCC(N(C)C)CC1)C3 [Example 47, [4-(Dimethylamino)piperidin-1-yl]{(7S)-4-[(5-methoxy-1,2,3-benzothiadiazol-6-yl)amino]-5,6,7,8-tetrahydro[1]benzothieno[2,3-d]pyrimidin-7-yl}methanone]  7.6 nM
6. COc1cc2nnsc2cc1Nc1ncnc2sc3c(c12)CC[C@H](C(=O)NCCC(F)(F)F)C3 [Example 56, (7S)-4-[(5-Methoxy-1,2,3-benzothiadiazol-6-yl)amino]-N-(3,3,3-trifluoropropyl)-5,6,7,8-tetrahydro[1]benzothieno[2,3-d]pyrimidine-7-carboxamide]  7.3 nM
7. COc1cc2nnsc2cc1Nc1ncnc2sc3c(c12)CC[C@H](C(=O)N1C[C@@H]2C[C@H]1CN2C)C3 [Example 53, {(7S)-4-[(5-Methoxy-1,2,3-benzothiadiazol-6-yl)amino]-5,6,7,8-tetrahydro[1]benzothieno[2,3-d]pyrimidin-7-yl}[(1S,4S)-5-methyl-2,5-diazabicyclo[2.2.1]hept-2-yl]methanone]  3.8 nM
8. COc1cc2nnsc2cc1Nc1ncnc2sc3c(c12)CC[C@H](C(=O)N1CC[C@H](N(C)C)C1)C3 [Example 51, [(3S)-3-(Dimethylamino)pyrrolidin-1-yl]{(7S)-4-[(5-methoxy-1,2,3-benzothiadiazol-6-yl)amino]-5,6,7,8-tetrahydro[1]benzothieno[2,3-d]pyrimidin-7-yl}methanone]  3.3 nM
9. CN1C[C@H]2C[C@@H]1CN2C(=O)[C@H]1CCc2c(sc3ncnc(Nc4ccc5nnsc5c4)c23)C1 [Example 59, [(7S)-4-(1,2,3-Benzothiadiazol-6-ylamino)-5,6,7,8-tetrahydro[1]benzothieno[2,3-d]pyrimidin-7-yl][(1R,4R)-5-methyl-2,5-diazabicyclo[2.2.1]hept-2-yl]methanone]  3.2 nM
10. COc1cc2nnsc2cc1Nc1ncnc2sc3c(c12)CC[C@H](C(=O)N1CC[C@@H](N(C)C)C1)C3 [Example 52, [(3R)-3-(Dimethylamino)pyrrolidin-1-yl]{(7S)-4-[(5-methoxy-1,2,3-benzothiadiazol-6-yl)amino]-5,6,7,8-tetrahydro[1]benzothieno[2,3-d]pyrimidin-7-yl}methanone]  2.1 nM
11. COc1cc2nnsc2cc1Nc1ncnc2sc3c(c12)CC[C@H](C(=O)N1CCC(N(C)CCN(C)C)CC1)C3 [Example 48, (4-{[2-(dimethylamino)ethyl](methyl)amino}piperidin-1-yl){(7S)-4-[(5-methoxy-1,2,3-benzothiadiazol-6-yl)amino]-5,6,7,8-tetrahydro[1]benzothieno[2,3-d]pyrimidin-7-yl}methanone]  2 nM
12. COc1cc2nnsc2cc1Nc1ncnc2sc3c(c12)CC[C@H](C(=O)N1C[C@H]2C[C@@H]1CN2C)C3 [Example 58, {(7S)-4-[(5-Methoxy-1,2,3-benzothiadiazol-6-yl)amino]-5,6,7,8-tetrahydro[1]benzothieno[2,3-d]pyrimidin-7-yl}[(1R,4R)-5-methyl-2,5-diazabicyclo[2.2.1]hept-2-yl]methanone]  1.9 nM
13. COc1cc2nnsc2cc1Nc1ncnc2sc3c(c12)CC[C@H](C(=O)N1CC(C#N)C1)C3 [Example 44, 1-({(7S)-4-[(5-Methoxy-1,2,3-benzothiadiazol-6-yl)amino]-5,6,7,8-tetrahydro[1]benzothieno[2,3-d]pyrimidin-7-yl}carbonyl)azetidine-3-carbonitrile]  1.7 nM
14. COc1cc2nnsc2cc1Nc1ncnc2sc3c(c12)CC[C@H](C(=O)N1CCN(CCN(C)C)CC1)C3 [Example 49, {4-[2-(Dimethylamino)ethyl]piperazin-1-yl}{(7S)-4-[(5-methoxy-1,2,3-benzothiadiazol-6-yl)amino]-5,6,7,8-tetrahydro[1]benzothieno[2,3-d]pyrimidin-7-yl}methanone]  1.7 nM
15. COc1cc2nnsc2cc1Nc1ncnc2sc3c(c12)CC[C@H](C(=O)N1C[C@H](O)[C@@H](O)C1)C3 [Example 57, [(3S,4S)-3,4-Dihydroxypyrrolidin-1-yl]{(7S)-4-[(5-methoxy-1,2,3-benzothiadiazol-6-yl)amino]-5,6,7,8-tetrahydro[1]benzothieno[2,3-d]pyrimidin-7-yl}methanone]  1.6 nM
16. COc1cc2nnsc2cc1Nc1ncnc2sc3c(c12)CC[C@H](C(=O)N1CC(C)(O)C1)C3 [Example 45, (3-Hydroxy-3-methylazetidin-1-yl){(7S)-4-[(5-methoxy-1,2,3-benzothiadiazol-6-yl)amino]-5,6,7,8-tetrahydro[1]benzothieno[2,3-d]pyrimidin-7-yl}methanone]  1.5 nM
